In patent US20200163913A1 (Shanghai Huali Biomedical Co., Ltd., priority 2017, published 2020):
Read-outs that look alike come from different tables or passages of the source.

Key:
[1] = tested on: human colon cancer cell HCT-116; assay: CCK-8 cell proliferation inhibition, HCT-116; assay type: cell-based
Description: (§1) Take more than 90% of live cells for experiments. Cell proliferation inhibition test uses EnoGeneCell™ Counting Kit-8 (CCK-8) cell viability detection kit. Cells are digested and counted to make a cell suspension with a concentration of 1×10^5 cells/mL, 100 μL of cell suspension (1×10^4 cells per well) was added to each well of a 96-well plate; Incubate in a 5% CO2 incubator for 24 hours; add 100 μL of the corresponding drug-containing culture medium to each well, and set a negative control group, a vehicle control group, and a positive control group, with 5 replicates in each group; place the 96-well plate at 37° C.

[2] = tested on: human liver cancer cell HepG2; assay: CCK-8 cell proliferation inhibition, HepG2; assay type: cell-based; conditions: read-out: IC50 HepG2
Description: as §1

[3] = target: Arylsulfatase; assay: Arylsulfatase activity assay in vitro; assay type: biochemical; conditions: p-nitrophenyl sulfate substrate, 405 nm; read-out: IC50 sulfatase
Description: Weigh an appropriate amount of the test compound and dissolve it in dimethyl sulfoxide. Dilute it with Tris-HCl buffer for 2, 5, 10, 20, 50, 100, 200, 500, 1000, 2000, 5000, and 10,000 times. Add another dilution gradient to the sample. Arylsulfatase and potassium p-nitrophenyl sulfate are directly dissolved in Tris-HCl buffer. 40 μL of the test compound, 50 μL of arylsulfatase and 50 μL of potassium p-nitrobenzene sulfate were added to a 96-well plate for reaction. A blank control without enzymes and a standard control without test compounds are used. The volume is made up with Tris-HCl buffer. 405 nm detection in the microplate reader, each sample is measured for 40 times, and the interval is 30 s. The representative time node within the time period with good linearity of the absorbance value are selected for data analysis. The measured absorbance value are subtracted from the background value of the blank control and the initial value when the reaction time are 0. For comparison, calculate the inhibition rate at different concentrations, and use the built-in forecast function of excel to predict the IC50 value.

[4] = tested on: human cervical cancer cell HeLa; assay: CCK-8 cell proliferation inhibition, HeLa; assay type: cell-based
Description: as §1

[5] = tested on: human gastric cancer cell MGC-803; assay: CCK-8 cell proliferation inhibition, MGC-803; assay type: cell-based; conditions: read-out: IC50 MGC803
Description: as §1

[6] = tested on: Tubulin; assay: Tubulin polymerization activity test; assay type: biochemical; conditions: tubulin 4.8 mg/ml, 37° C., 340 nm; read-out: IC50 (Table 3, tubulin polymerization test)
Description: Tubulin (4.8 mg/ml) protein was mixed with the test compound in a PEM buffer (100 mM PIPES, 1 mM MgCl2 and 1 mM EGTA) containing 1 mM GTP and 5% glycerol. A SPECTRA MAX 190 (Molecular Device) spectrophotometer was used to monitor the microtubule polymerization at 37° C. by light scattering at 340 nm, and the microtubule polymerization was calculated from the absorbance value. Each sample was tested three times at ten different concentrations.

[7] = tested on: human gastric cancer cell MKN45; assay: CCK-8 cell proliferation inhibition, MKN45; assay type: cell-based; conditions: read-out: IC50 MKN45
Description: as §1

[8] = tested on: sarcoma S180; assay: Tumor inhibition rate on sarcoma S180 mouse transplantation tumor; assay type: in vivo, mice; conditions: for tumor observation: 8th day after administration; for Inhibition rate (tumor weight): dose 25 mg/kg, d0-d12 7 times, sacrifice day 14
Source text: After 1 week of adaptation, the mice were inoculated subcutaneously with sarcoma S180 tumor tissue. After the tumor grew 100-300 mm3, the animals were randomly divided into groups.

[9] = tested on: human lung cancer cell A549; assay: CCK-8 cell proliferation inhibition, A549; assay type: cell-based
Description: as §1

[10] = Acute toxicity test of single intragastric administration of mice; conditions: both sexes, Kunming, mouse, in vivo, po, 14 days observation
Description: Kunming mice (body weight: 17-22 g, male and female), randomly divided according to body weight. […] The doses were 150, 130, 120, 110, 100, 90, 80, 70, 60, 50, 40, 30 mg/kg by single intragastric administration, 0.25 h, 0.5 h, 1 h, 2 h after administration Observe once every 4 h, 24 h, and then record the mortality, then observe it once a day, record the mortality for 14 days, and sacrifice the undead mice on the 15th day for pathological dissection.

[11] = Homo sapiens, HCT-116, 72 h, CCK-8, 72 h, read-out: IC50 HTC116
[12] = Homo sapiens, HCT-116, running text, read-out: IC50 HCT-116
[13] = Homo sapiens, HepG2, 72 h, CCK-8, 72 h
[14] = Homo sapiens, HepG2, running text
[15] = Homo sapiens, HeLa, 72 h, CCK-8, 72 h, read-out: IC50 Hela
[16] = Homo sapiens, HeLa, read-out: IC50 HeLa
[17] = A549, CCK-8, 72 h, read-out: IC50 A549

Row | Compound | IC50 [1, 11] | IC50 [1, 12] | IC50 [2, 13] | IC50 [2, 14] | IC50 [3] | IC50 [4, 15] | IC50 [4, 16] | IC50 ([5]; MGC-803, 72 h, CCK-8, 72 h) | IC50 ([5]; MGC-803, running text) | IC50 [6] | IC50 ([7]; MKN-45, 72 h, CCK-8, 72 h) | IC50 ([7]; MKN-45, running text) | tumor observation [8] | Inhibition rate (tumor weight) [8] | IC50 [9, 17] | IC50 ([9]; A549, read-out: IC50 A549) | LD50 at 14 days [10] | IC50 ([1]; listed as (Z)-3,4,5-trimethoxy-4′-ethoxy-3′-aminosulfamatestilbene, read-out: IC50 HCT-116) | IC50 ([2]; listed as (Z)-3,4,5-trimethoxy-4′-ethoxy-3′-aminosulfamatestilbene) | IC50 ([4]; listed as (Z)-3,4,5-trimethoxy-4′-ethoxy-3′-aminosulfamatestilbene, read-out: IC50 HeLa)
1 | COc1ccc(/C=C\c2cc(OC)c(OC)c(OC)c2)cc1OS(N)(=O)=O [Compound A1-1, (Z)-3,4,5-trimethoxy-4′-methoxy-3′-sulfamate stilbene] | 222 nM | 222 nM | 335 nM | < 1000 nM | 6160 nM | 458 nM | 340 nM | 298 nM | < 600 nM | 6600 nM | 599 nM | < 600 nM | shrinking trend | 42% | 481 nM | < 500 nM | 106 mg/kg | – | – | –
2 | CCOc1ccc(/C=C\c2cc(OC)c(OC)c(OC)c2)cc1OS(N)(=O)=O [Compound A2-1, (Z)-3,4,5-trimethoxy-4′-ethoxy-3′-sulfamate stilbene] | 446 nM | 446 nM | 412 nM | < 1000 nM | – | 480 nM | 480 nM | 267 nM | < 500 nM | – | 325 nM | < 500 nM | shrinking trend | 40% | 229 nM | < 500 nM | 101 mg/kg | < 500 nM | < 500 nM | < 500 nM
